# Reference: patent US8211935B2, “Heterocyclic derivatives for modulation of calcium channels” (Vertex Pharmaceuticals Incorporated, priority 2004, dated 2012)
# Molecular target: T1, CaV2.2 (Homo sapiens, UniProt Q00975)
# T1 construct: expressed in transfected cells; host or cells: HEK293
# Test: VIPR optical membrane potential assay with electrical stimulation
# Format: cell-based
# Conditions: not given
# Procedure, shortened: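 HEK293 cells stably expressing CaV2.2, stained with CC2-DMPE (10 μM final) and oxonol voltage-sensitive dyes, compound added with BaCl2. Membrane potential response evoked by 3-5 s electrical stimulation. Read as background-subtracted 460/580 nm emission ratio, response R=Rf/Ri, normalized to mibefradil positive and no-drug negative controls.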
# T1 sequence (Q00975 whole entry): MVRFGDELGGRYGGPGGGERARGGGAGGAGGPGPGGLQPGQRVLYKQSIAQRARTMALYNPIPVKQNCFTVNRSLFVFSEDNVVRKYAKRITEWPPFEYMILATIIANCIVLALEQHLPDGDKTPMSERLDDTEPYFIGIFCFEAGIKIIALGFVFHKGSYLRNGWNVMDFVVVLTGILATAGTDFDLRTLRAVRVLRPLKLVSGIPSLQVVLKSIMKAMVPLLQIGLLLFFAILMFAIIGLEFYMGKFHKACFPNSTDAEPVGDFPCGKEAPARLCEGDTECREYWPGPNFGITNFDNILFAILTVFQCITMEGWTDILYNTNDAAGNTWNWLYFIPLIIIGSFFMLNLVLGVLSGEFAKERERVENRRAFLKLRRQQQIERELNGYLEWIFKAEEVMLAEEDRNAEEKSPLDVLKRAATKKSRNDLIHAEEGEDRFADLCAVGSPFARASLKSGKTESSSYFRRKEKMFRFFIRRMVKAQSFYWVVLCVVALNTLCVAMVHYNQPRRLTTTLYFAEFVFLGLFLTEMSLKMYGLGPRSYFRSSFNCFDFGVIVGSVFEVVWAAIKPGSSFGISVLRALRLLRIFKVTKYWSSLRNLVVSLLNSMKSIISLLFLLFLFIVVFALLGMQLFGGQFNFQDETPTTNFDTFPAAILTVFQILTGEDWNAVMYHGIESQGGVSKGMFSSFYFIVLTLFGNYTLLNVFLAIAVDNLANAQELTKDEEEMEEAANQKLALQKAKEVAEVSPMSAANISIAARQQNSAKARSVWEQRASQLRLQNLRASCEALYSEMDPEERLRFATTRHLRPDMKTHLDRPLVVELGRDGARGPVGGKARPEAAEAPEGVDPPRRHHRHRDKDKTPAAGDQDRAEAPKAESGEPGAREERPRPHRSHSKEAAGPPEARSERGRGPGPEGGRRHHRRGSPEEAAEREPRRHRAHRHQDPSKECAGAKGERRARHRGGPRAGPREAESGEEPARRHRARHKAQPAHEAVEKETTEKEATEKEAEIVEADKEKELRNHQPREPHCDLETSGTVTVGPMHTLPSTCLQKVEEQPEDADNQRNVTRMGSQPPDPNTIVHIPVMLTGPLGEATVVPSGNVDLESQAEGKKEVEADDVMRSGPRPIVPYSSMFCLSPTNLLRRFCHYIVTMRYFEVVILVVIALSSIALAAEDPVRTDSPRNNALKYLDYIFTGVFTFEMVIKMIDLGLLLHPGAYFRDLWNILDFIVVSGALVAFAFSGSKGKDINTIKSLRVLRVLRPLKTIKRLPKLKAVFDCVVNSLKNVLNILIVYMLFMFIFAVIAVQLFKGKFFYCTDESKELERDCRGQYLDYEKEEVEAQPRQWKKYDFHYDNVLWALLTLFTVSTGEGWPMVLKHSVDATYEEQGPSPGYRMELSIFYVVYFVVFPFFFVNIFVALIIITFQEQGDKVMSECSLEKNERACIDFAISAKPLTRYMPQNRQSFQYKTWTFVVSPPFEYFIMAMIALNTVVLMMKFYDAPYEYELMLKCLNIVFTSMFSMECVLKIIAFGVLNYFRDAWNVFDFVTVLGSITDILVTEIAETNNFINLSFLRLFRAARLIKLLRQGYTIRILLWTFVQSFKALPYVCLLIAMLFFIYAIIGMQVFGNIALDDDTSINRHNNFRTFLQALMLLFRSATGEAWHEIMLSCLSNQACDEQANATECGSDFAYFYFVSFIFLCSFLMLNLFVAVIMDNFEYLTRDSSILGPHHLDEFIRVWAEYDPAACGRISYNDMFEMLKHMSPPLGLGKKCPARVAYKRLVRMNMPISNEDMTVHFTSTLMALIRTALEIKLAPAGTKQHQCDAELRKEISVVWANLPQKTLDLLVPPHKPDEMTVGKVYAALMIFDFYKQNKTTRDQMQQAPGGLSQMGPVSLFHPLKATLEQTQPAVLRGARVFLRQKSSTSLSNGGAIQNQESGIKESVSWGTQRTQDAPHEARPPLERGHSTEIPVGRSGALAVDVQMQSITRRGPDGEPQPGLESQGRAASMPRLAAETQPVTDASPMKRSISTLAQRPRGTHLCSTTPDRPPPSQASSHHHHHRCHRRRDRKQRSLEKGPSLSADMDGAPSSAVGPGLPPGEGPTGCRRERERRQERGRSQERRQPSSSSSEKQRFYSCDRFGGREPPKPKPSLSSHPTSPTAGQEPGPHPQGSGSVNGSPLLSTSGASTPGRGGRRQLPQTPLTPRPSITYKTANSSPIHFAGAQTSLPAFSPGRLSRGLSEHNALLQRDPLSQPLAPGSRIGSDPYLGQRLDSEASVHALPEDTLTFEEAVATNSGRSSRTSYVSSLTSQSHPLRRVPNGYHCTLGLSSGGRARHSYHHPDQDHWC
# T1 sequence (P54284 whole entry partner): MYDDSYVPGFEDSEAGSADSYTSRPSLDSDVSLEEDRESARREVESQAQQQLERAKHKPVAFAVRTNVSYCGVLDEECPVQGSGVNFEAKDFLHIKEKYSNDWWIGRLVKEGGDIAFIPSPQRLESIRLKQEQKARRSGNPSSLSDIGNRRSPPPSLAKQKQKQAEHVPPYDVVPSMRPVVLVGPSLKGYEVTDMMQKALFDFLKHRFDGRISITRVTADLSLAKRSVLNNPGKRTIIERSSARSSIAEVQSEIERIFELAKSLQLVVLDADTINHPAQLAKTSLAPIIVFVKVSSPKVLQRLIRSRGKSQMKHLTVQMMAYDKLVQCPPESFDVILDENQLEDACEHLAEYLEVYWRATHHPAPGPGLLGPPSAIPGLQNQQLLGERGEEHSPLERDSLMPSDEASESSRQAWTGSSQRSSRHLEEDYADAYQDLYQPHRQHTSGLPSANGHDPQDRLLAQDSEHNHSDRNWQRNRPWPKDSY
# T1 sequence (P54289 25-946 partner limits assumed): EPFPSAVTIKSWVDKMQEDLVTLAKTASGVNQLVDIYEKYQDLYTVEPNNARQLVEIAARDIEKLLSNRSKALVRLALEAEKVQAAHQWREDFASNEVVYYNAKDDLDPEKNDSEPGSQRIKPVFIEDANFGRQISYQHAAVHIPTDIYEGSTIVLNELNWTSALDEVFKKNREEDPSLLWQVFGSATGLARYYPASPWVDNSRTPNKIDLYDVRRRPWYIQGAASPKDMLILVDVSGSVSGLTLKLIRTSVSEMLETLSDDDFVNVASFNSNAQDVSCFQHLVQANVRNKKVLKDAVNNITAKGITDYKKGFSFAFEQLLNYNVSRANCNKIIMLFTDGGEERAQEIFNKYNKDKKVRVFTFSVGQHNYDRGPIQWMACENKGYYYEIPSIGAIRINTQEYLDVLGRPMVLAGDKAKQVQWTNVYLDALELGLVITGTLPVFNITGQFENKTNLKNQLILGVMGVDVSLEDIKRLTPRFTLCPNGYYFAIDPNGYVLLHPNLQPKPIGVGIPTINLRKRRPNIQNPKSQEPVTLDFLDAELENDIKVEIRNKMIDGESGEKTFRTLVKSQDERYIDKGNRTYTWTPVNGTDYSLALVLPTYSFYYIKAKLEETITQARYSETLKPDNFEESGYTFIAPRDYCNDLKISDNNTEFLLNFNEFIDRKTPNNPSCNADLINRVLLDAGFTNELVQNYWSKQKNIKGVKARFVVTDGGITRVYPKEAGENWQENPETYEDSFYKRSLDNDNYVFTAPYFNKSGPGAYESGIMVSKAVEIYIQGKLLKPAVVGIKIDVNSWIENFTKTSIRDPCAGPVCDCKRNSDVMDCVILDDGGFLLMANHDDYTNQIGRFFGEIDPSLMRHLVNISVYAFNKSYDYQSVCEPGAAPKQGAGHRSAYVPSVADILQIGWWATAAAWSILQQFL
# T1 sequence (P54289 947-1103 partner limits assumed): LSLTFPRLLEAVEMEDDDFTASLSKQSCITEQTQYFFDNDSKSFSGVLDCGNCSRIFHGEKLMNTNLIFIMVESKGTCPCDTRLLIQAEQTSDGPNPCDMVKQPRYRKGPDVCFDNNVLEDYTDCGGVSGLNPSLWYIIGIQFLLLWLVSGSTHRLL
row,SMILES,IC50 [µM]
1,Cc1c(C(=O)N2CCC3(CC2)OCCO3)[nH]c2ccc(S(=O)(=O)N3CCC(C)CC3)cc12 [compound 351],5 to 20
2,Cc1c(C(=O)N2CCC3(CC2)OCCO3)oc2ccc(S(=O)(=O)N3CCCCC3)cc12 [compound 173],5 to 20
3,Cc1c(C(=O)N2CCC3(CC2)OCCO3)oc2ccc(S(=O)(=O)N3CCCC(C)C3)cc12 (centres unmarked) [compound 299],5 to 20

# Same assay, conditions: Table 3, biological assay data; read-out: IC50
row,SMILES,IC50 [µM]
1,Cc1c(C(=O)NCc2ccccc2)oc2ccc(S(=O)(=O)N3CCCCC3)cc12 [compound 305],5 to 20
2,Cc1c(C(=O)NCC2CCCO2)[nH]c2ccc(S(=O)(=O)N3CCCCCC3)cc12 (centres unmarked) [compound 68],5 to 20
3,O=C(NCC1CCCO1)c1cc2cc(S(=O)(=O)N3CCCCCC3)ccc2[nH]1 (centres unmarked) [compound 386],< 5
4,CCN(CC)C(=O)c1cc2cc(S(=O)(=O)N3CC(C)CC(C)C3)ccc2o1 (centres unmarked) [compound 31],< 5
5,CCCCN(C)C(=O)c1cc2cc(S(=O)(=O)N3CCCCCC3)ccc2[nH]1 [compound 422],< 5
6,Cc1c(C(=O)N2CCCCCC2)oc2ccc(S(=O)(=O)N3CC(C)CC(C)C3)cc12 (centres unmarked) [compound 330],< 5
7,Cc1c(C(=O)NC2CCC(C)CC2)oc2ccc(S(=O)(=O)N3CCOCC3)cc12 (centres unmarked) [compound 39],< 20
8,Cc1c(C(=O)NCc2ccccc2)oc2ccc(S(=O)(=O)N3CCOCC3)cc12 [compound 267],< 20
9,CS(=O)(=O)Nc1ccc2[nH]c(C(=O)NC3CC3)cc2c1 [compound 286],< 20
10,Cc1c(C(=O)N2CCCC2)oc2ccc(S(=O)(=O)N3CCCCCC3)cc12 [compound 402],< 20
11,CC1CCN(S(=O)(=O)c2ccc3[nH]c(C(=O)NCC4CCCO4)cc3c2)CC1 (centres unmarked) [compound 407],< 5
12,CCN(CC)C(=O)c1cc2cc(S(=O)(=O)N3CC(C)CC(C)C3)ccc2n1CC(O)CN1CCN(C)CC1 (centres unmarked) [compound 191],< 5
13,CC1CCN(S(=O)(=O)c2ccc3[nH]c(C(=O)N4CCCC(C)C4)cc3c2)CC1 (centres unmarked) [compound 101],< 5
14,CCNC(=O)c1cc2cc(S(=O)(=O)N3CCC(C)CC3)ccc2[nH]1 [compound 130],< 5
15,CC1CC(C)CN(S(=O)(=O)c2ccc3[nH]c(C(N)=O)cc3c2)C1 (centres unmarked) [compound 251],5 to 20
16,CCN(CC)C(=O)c1cc2cc(S(=O)(=O)N3CCCCCC3)ccc2o1 [compound 1],5 to 20
17,Cc1c(C(=O)N2CCCC2)oc2ccc(S(=O)(=O)N3CCCC(C)C3)cc12 (centres unmarked) [compound 178],5 to 20
18,Cc1c(C(=O)NC(C)C)oc2ccc(S(=O)(=O)N3CC(C)CC(C)C3)cc12 (centres unmarked) [compound 21],< 5
19,Cc1c(C(=O)NC2CCCC2)oc2ccc(S(=O)(=O)N3CCC(C)CC3)cc12 [compound 148],< 5
20,Cc1c(C(=O)N2CCCCC2C)oc2ccc(S(=O)(=O)N3CCCC(C)C3)cc12 (centres unmarked) [compound 61],5 to 20
21,CCOC(=O)N1CCN(C(=O)c2oc3ccc(S(=O)(=O)N(CC)CC)cc3c2C)CC1 [compound 328],< 20
22,Cc1c(C(=O)NC2CCCC2)[nH]c2ccc(S(=O)(=O)N3CC(C)CC(C)C3)cc12 (centres unmarked) [compound 390],< 5
23,Cc1c(C(=O)N(C(C)C)C(C)C)oc2ccc(S(=O)(=O)N3CCC(C)CC3)cc12 [compound 443],5 to 20
24,Cc1c(C(=O)N2CCN(C)CC2)oc2ccc(S(=O)(=O)N3CCCC(C)C3)cc12 (centres unmarked) [compound 404],5 to 20
25,Cc1c(C(=O)N2CCC(C)CC2)[nH]c2ccc(S(=O)(=O)N3CC(C)CC(C)C3)cc12 (centres unmarked) [compound 103],< 5
26,Cc1c(C(=O)NC2CCCC2)[nH]c2ccc(S(=O)(=O)N3CCC(C)CC3)cc12 [compound 146],< 5

row,SMILES,IC50 [µM]
1,Cc1c(C(=O)NC2CC2)oc2ccc(S(=O)(=O)N(C)c3ccccn3)cc12 [compound 261],< 20
2,CC1CC(C)CN(S(=O)(=O)c2ccc3c(c2)cc(C(=O)NCc2ccccc2)n3S(=O)(=O)c2ccccc2)C1 (centres unmarked) [compound 452],< 5
3,CCN(CC)C(=O)c1oc2ccc(S(=O)(=O)N3CCC(C)CC3)cc2c1C [compound 15],5 to 20
4,Cc1c(C(=O)N2CCCC(C)C2)oc2ccc(S(=O)(=O)N3CC(C)CC(C)C3)cc12 (centres unmarked) [compound 378],< 5
5,Cc1c(C(=O)NCCc2ccccc2)oc2ccc(S(=O)(=O)N3CCCCCC3)cc12 [compound 201],< 5
6,CC1CC(C)CN(S(=O)(=O)c2ccc3oc(C(=O)N4CCCC4)cc3c2)C1 (centres unmarked) [compound 184],< 5
7,CCNC(=O)c1cc2cc(S(=O)(=O)N3CC(C)CC(C)C3)ccc2o1 (centres unmarked) [compound 469],< 5
8,Cc1c(C(=O)N2CCCCC2C)[nH]c2ccc(S(=O)(=O)N3CCCCCC3)cc12 (centres unmarked) [compound 379],5 to 20
9,CC1CCN(S(=O)(=O)c2ccc3[nH]c(C(=O)NCCCc4ccccc4)cc3c2)CC1 [compound 98],< 5
10,Cc1c(C(=O)N2CCC(C)CC2)oc2ccc(S(=O)(=O)N3CCCCCC3)cc12 [compound 307],< 5
11,CCOC(=O)N1CCN(C(=O)c2cc3cc(S(=O)(=O)N4CC(C)CC(C)C4)ccc3o2)CC1 (centres unmarked) [compound 346],< 5
12,Cc1c(C(=O)NCC2CCCO2)oc2ccc(S(=O)(=O)N3CCCC(C)C3)cc12 (centres unmarked) [compound 205],5 to 20
13,CC1CCN(S(=O)(=O)c2ccc3[nH]c(C(=O)N4CCCCC4)cc3c2)CC1 [compound 368],< 5
14,Cc1c(C(=O)N(C)Cc2ccccc2)oc2ccc(S(=O)(=O)N3CCCCCC3)cc12 [compound 317],< 5
15,CCCCN(C)C(=O)c1oc2ccc(S(=O)(=O)N(CC)CC)cc2c1C [compound 95],5 to 20
16,CCN(CC)S(=O)(=O)c1ccc2oc(C(=O)NCCCc3ccccc3)c(C)c2c1 [compound 318],5 to 20
17,CCNC(=O)c1oc2ccc(S(=O)(=O)N(CC)CC)cc2c1C [compound 444],< 20
18,CCN(CC)S(=O)(=O)c1ccc2oc(C(=O)N(C)Cc3ccccc3)c(C)c2c1 [compound 308],< 5
19,O=C(c1cc2cc(S(=O)(=O)N3CCCCCC3)ccc2o1)N1CCCC1 [compound 222],5 to 20
20,CNC(=O)c1cc2cc(S(=O)(=O)N3CC(C)CC(C)C3)ccc2[nH]1 (centres unmarked) [compound 37],< 5
21,CNC(=O)c1cc2cc(S(=O)(=O)N3CCC(C)CC3)ccc2o1 [compound 438],5 to 20
22,CC1CC(C)CN(S(=O)(=O)c2ccc3[nH]c(C(=O)NC(C)C)cc3c2)C1 (centres unmarked) [compound 274],< 5
23,CC1CC(C)CN(S(=O)(=O)c2ccc3oc(C(=O)NCCC4CCOCC4)cc3c2)C1 (centres unmarked) [compound 225],< 5
24,Cc1c(C(=O)NCCC2CCOCC2)[nH]c2ccc(S(=O)(=O)N3CC(C)CC(C)C3)cc12 (centres unmarked) [compound 78],5 to 20
25,O=C(NCCCc1ccccc1)c1cc2cc(S(=O)(=O)N3CCCCCC3)ccc2o1 [compound 40],< 5
26,CC1CCN(C(=O)c2cc3cc(S(=O)(=O)N4CCCCCC4)ccc3o2)CC1 [compound 190],< 5

row,SMILES,IC50 [µM]
1,Cc1c(C(=O)N2CCN(C)CC2)[nH]c2ccc(S(=O)(=O)N3CCCCCC3)cc12 [compound 3],< 20
2,CC1CC(C)CN(S(=O)(=O)c2ccc3c(c2)cc(C(=O)NC2CC2)n3S(=O)(=O)c2ccccc2)C1 (centres unmarked) [compound 349],< 5
3,CNC(=O)c1oc2ccc(S(=O)(=O)N3CC(C)CC(C)C3)cc2c1C (centres unmarked) [compound 214],< 5
4,O=C(NCc1ccccc1)c1cc2cc(S(=O)(=O)N3CCCCCC3)ccc2o1 [compound 34],< 5
5,Cc1c(C(=O)N2CCCCCC2)oc2ccc(S(=O)(=O)N3CCCCCC3)cc12 [compound 45],< 5
6,Cc1c(C(=O)NC2CCCC2)oc2ccc(S(=O)(=O)N3CCCCCC3)cc12 [compound 294],< 5
7,O=C(NC1CCCC1)c1cc2cc(S(=O)(=O)N3CCCCCC3)ccc2[nH]1 [compound 41],5 to 20
8,Cc1c(C(=O)NCc2ccccc2)oc2ccc(S(=O)(=O)N3CCCC(C)C3)cc12 (centres unmarked) [compound 397],5 to 20
9,CC1CC(C)CN(S(=O)(=O)c2ccc3[nH]c(C(=O)N4CCCCC4C)cc3c2)C1 (centres unmarked) [compound 241],< 5
10,CCN(CC)C(=O)c1cc2cc(S(=O)(=O)N3CCC(C)CC3)ccc2[nH]1 [compound 315],< 5
11,CCCCN(C)C(=O)c1cc2cc(S(=O)(=O)N3CCC(C)CC3)ccc2[nH]1 [compound 141],< 5
12,Cc1c(C(=O)N2CC(C)CC(C)C2)oc2ccc(S(=O)(=O)N3CCCC(C)C3)cc12 (centres unmarked) [compound 233],< 5
13,O=C(NC1CCCCC1)c1cc2cc(S(=O)(=O)N3CCCCCC3)ccc2[nH]1 [compound 296],< 20
14,Cc1c(C(=O)NCc2ccccn2)oc2ccc(S(=O)(=O)N3CC(C)CC(C)C3)cc12 (centres unmarked) [compound 73],< 20
15,Cc1c(C(=O)NC2CCCC2)oc2ccc(S(=O)(=O)N3CCCCC3)cc12 [compound 260],< 5
16,Cc1c(C(=O)NC2CCCC(C)C2C)oc2ccc(S(=O)(=O)N3CCOCC3)cc12 (centres unmarked) [compound 187],5 to 20
17,CC1CC(C)CN(S(=O)(=O)c2ccc3[nH]c(C(=O)N4CCN(C)CC4)cc3c2)C1 (centres unmarked) [compound 91],5 to 20
18,O=C(NCc1ccccc1)c1cc2cc(S(=O)(=O)N3CCCCCC3)ccc2[nH]1 [compound 382],< 5
19,CCN(CC)C(=O)c1cc2cc(S(=O)(=O)N3CCC(C)CC3)ccc2n1C [compound 244],< 5
20,CC1CCCN(C(=O)c2cc3cc(S(=O)(=O)N4CCCCCC4)ccc3o2)C1 (centres unmarked) [compound 170],< 5
21,Cc1c(C(=O)NC2CC2)oc2ccc(S(=O)(=O)NCCN3CCCCC3)cc12 [compound 25],< 20
22,CC1CC(C)CN(S(=O)(=O)c2ccc3[nH]c(C(=O)NC4CC4)cc3c2)C1 (centres unmarked) [compound 209],< 5
23,CCN(CC)S(=O)(=O)c1ccc2oc(C(=O)NC)c(C)c2c1 [compound 51],< 20
24,Cc1c(C(=O)N2CCCCC2C)oc2ccc(S(=O)(=O)N3CCCCCC3)cc12 (centres unmarked) [compound 334],5 to 20
25,Cc1c(C(=O)NCC2CCOCC2)[nH]c2ccc(S(=O)(=O)N3CCC(C)CC3)cc12 [compound 166],< 20
